Experimental data: patent publication US20160166679A1, “METHOD OF TREATMENT USING FOLATE CONJUGATES AND TYROSINE KINASE INHIBITORS” (Purdue Research Foundation, priority 2014, published 2016)

Tests used:
[1] = system: L1210A tumors; test: Tyrosine kinase inhibitor/folate-FITC combination therapy in L1210A tumor-bearing mice; assay type: in vivo, mouse (DBA/2); conditions: for tumor volume plot: position of the line at the longest duration (PBS control topmost): FIG. 16; for tumor volume plot: position of the line at the longest duration (PBS control second line from the bottom): FIG. 4
Protocol: The effect of the combination therapy strategy of Example 1 was evaluated on an alternative tumor type. The […] lymphocytic leukemia cell line was selected due to its high FR expression levels and its ability to grow in immune competent mice. Female DBA/2 mice (purchased from Harlan Laboratories in Indianapolis, Ind.) were used in this model. Mice were injected subcutaneously with 1×10^6 cells suspended in PBS on the left flank. […] Doses of 500 nmols/Kg of folate-FITC in phosphate buffered saline (PBS) by intraperitoneal injection were used in the folate-FITC alone treatment and the combination treatment.
All treatment groups were terminated when tumors in the PBS control group reached 1500 mm^3 and tumors and spleens were harvested for analysis. The excised tumors were digested using a collagenase cocktail and single cell suspensions were stained for the presence of FR, macrophages, MDSC, and T cells and analyzed by flow cytometry. The intra-tumoral vasculature content in mice treated with PBS, folate-FITC alone, sunitinib alone, or a combination of folate-FITC and sunitinib was imaged, as shown in FIG. 6. […] Portions of each tumor were also cryopreserved for sectioning and immunohistochemistry staining. Harvested spleens were also processed into single cell suspensions and analyzed for immune cell content. The percentage of CD4+ and CD8+ cytotoxic T cell in spleens of L1210A tumor-bearing mice treated with PBS, folate-FITC alone, sunitinib alone, or a combination of folate-FITC and sunitinib was determined, as shown in FIG. 5.
A second RTK inhibitor, axitinib, was studied in combination with folate-FITC on one of the tumor models. The combination therapy was tested in the L1210A lymphoma model following the experimental methods detailed in Example 2, using an axitinib concentration of 15 mg/Kg administered daily by oral gavage in place of sunitinib. The groups of mice were treated with PBS, folate-FITC alone (500 nmols/Kg of folate-FITC in phosphate buffered saline), axitinib alone, or a combination of folate-FITC and axitinib. Average weights of tumors and spleens of L1210A tumor-bearing mice are shown in FIGS. 17 and 18, respectively.

[2] = system: Renca tumors; test: Sunitinib/folate-FITC combination therapy in Renca tumor-bearing mice; assay type: in vivo, mouse (Balb/c); conditions: FIG. 2
Protocol: In order to test the effect of combining Sunitinib with folate-targeted immunotherapy on tumor regression in a clinically representative model, the combination therapy was evaluated in Renca tumors, a mouse syngeneic kidney cancer cell line. Renca cells were maintained in a folate deficient cell culture medium and were selected for high folate receptor (FR) expression via multiple steps of cell sorting before being used in therapeutic studies. […] In turn, folate-FITC was used as a folate-hapten conjugate in the therapeutic studies. Female Balb/c mice aged 5-6 weeks were purchased from Harlan Laboratories in Indianapolis, Ind. After allowing one week for the mice to acclimate to their environment, they were vaccinated with 35 ug KLH-FITC in 50 ug GPI-0100 as adjuvant. […]
Several days before the third immunization, each mouse was injected subcutaneously on the left flank with 1×10^6 Renca cells in serum free medium. […] Treatment was initiated when tumors measured 50 mm^3. […] Tumor sizes were measured using digital calipers on alternating days, and tumor volumes were calculated using the equation ½ (L×W^2).
Once it was determined that a study needed to be suspended due to tumor size, all animals in the treatment groups were euthanized within 1-2 days and their tumors and spleens harvested for freezing and analysis by flow cytometry. […]

[3] = system: M109 tumors; test: Sunitinib/folate-FITC combination therapy in the M109 lung cancer model; assay type: in vivo, mouse (Balb/c); conditions: M109 tumor-bearing mice; FIG. 11
Protocol: Solid M109 lung tumors were established on the shoulders of KLH-FITC immunized Balb/c mice (5-6 weeks old from Harlan Laboratories, Indianapolis, Ind.) by injecting them subcutaneously with 1×10^6 of syngeneic M109 cells suspended in media containing 1% female Balb/c serum. The mice were treated according to the same dosing schedule described in Examples 1 and 2. The groups of mice were treated with PBS, folate-FITC alone (500 nmols/Kg of folate-FITC in phosphate buffered saline), sunitinib alone, or a combination of folate-FITC (500 nmols/Kg of folate-FITC in phosphate buffered saline) and sunitinib. Following completion of the study and termination of treatment, the treated animals were sacrificed and tumors and spleens were harvested for analysis as described in Example 2.

CNC(=O)c1ccccc1Sc1ccc2c(/C=C/c3ccccn3)n[nH]c2c1 [axitinib]
tumor volume plot: position of the line at the longest duration (PBS control topmost) ([1]; axitinib study): second line from the bottom | average weights of spleens ([1]; axitinib study, FIG. 18): swelling of the spleens

Nc1nc2ncc(CNc3ccc(C(=O)NC(CCC(=O)NCCNC(=S)Nc4ccc(-c5c6ccc(=O)cc-6oc6cc(O)ccc56)c(C(=O)O)c4)C(=O)O)cc3)nc2c(=O)[nH]1 (stereo not drawn) [folate-FITC]
tumor volume plot: position of the line at the longest duration (PBS control topmost) [2]: second topmost line | tumor volume plot: position of the line at the longest duration (PBS control topmost) ([1]; axitinib study): second topmost line | average weights of spleens ([1]; axitinib study, FIG. 18): swelling of the spleens | tumor volume plot: position of the line at the longest duration (PBS control second line from the bottom) ([1]; sunitinib study): topmost line | average weights of spleens ([1]; sunitinib study, FIG. 9): swelling of the spleens | tumor volume plot: position of the line at the longest duration (PBS control topmost) [3]: second line from the bottom

CCN(CC)CCNC(=O)c1c(C)[nH]c(/C=C2\C(=O)Nc3ccc(F)cc32)c1C [sunitinib]
tumor volume plot: position of the line at the longest duration (PBS control topmost) [2]: second line from the bottom | tumor volume plot: position of the line at the longest duration (PBS control second line from the bottom) ([1]; sunitinib study): second topmost line | average weights of spleens ([1]; sunitinib study, FIG. 9): swelling of the spleens | tumor volume plot: position of the line at the longest duration (PBS control topmost) [3]: second topmost line
